The values that follow come from paper PMC8268238, “Seleno-Functionalization of Quercetin Improves the Non-Covalent Inhibition of M^pro and Its Antiviral Activity in Cells against SARS-CoV-2” (International Journal of Molecular Sciences, 2021).

The target in series [1] is T1, SARS-CoV-2 M^pro (Severe acute respiratory syndrome coronavirus 2, UniProt P0DTD1). As to the kind of experiment: SARS-CoV-2 M^pro inhibition assay (FRET substrate). It counts as biochemical. The settings on record: 0.2 μM enzyme, 20 μM substrate, pH 7, DMSO 2.5%. The procedure:
A continuous assay based on Förster resonance energy transfer (FRET) to measure in vitro the catalytic activity of M^pro was implemented by using the substrate (Dabcyl)KTSAVLQSGFRKME(Edans)-NH2 (Biosyntan GmbH, Berlin, Germany) The enzymatic reaction was initiated by adding substrate at 20 μM (final concentration) to the enzyme at 0.2 μM (final concentration) in a final volume of 100 μL. The reaction buffer was sodium phosphate 50 mM, pH 7, NaCl 150 mM, and DMSO 2.5%. Fluorescence emission was measured in a FluoDia T70 microplate reader (Photon Technology International, Birmingham, NJ, USA) for 20 min (excitation wavelength, 380 nm; emission wavelength, 500 nm). The initial slope of the time evolution curve of the fluorescence emission signal provided a direct quantification of the enzymatic activity.
The in vitro inhibition potency of the compounds against M^pro was assessed through the estimation of the inhibition constant, Ki, and the half-maximal inhibitory concentration, IC50, from experimental inhibition curves. Inhibition curves were obtained by measuring the enzyme activity (at fixed 0.2 μM enzyme concentration and fixed 20 μM substrate concentration) as a function of compound concentration (serial 2-fold dilution from 125 µM to 0 μM), maintaining the percentage of DMSO (2.5%) constant. The enzymatic activity was quantitated as the initial slope of the substrate fluorescence emission time evolution curve, and was plotted as a function of compound concentration. The ratio between the activity (slope) in the presence and absence of the compound provides the residual percentage of activity at a given compound concentration. Nonlinear regression analysis employing a simple inhibition model (considering inhibitor depletion due to enzyme binding) allowed us to estimate the apparent inhibition constant, Ki^app, for each compound according to Equation (1):(1) [EI]=1/2([I]T+[E]T+Kiapp−([I]T+[E]T+Kiapp)^2−4[E]T[I]T)[I]=[I]T−[EI]=1/2([I]T−[E]T−Kiapp+([I]T+[E]T+Kiapp)^2−4[E]T[I]T)v([I])/v([I]=0)=1−[EI]/[E]T=1/1+[I]/Kiapp, where [EI] is the concentration of the enzyme–inhibitor complex, [E]T and [I]T are the total concentrations of the enzyme and the inhibitor, Ki^app is the apparent inhibition constant for the inhibitors (quercetin and derivatives), [I] is the concentration of the free inhibitor, and v is the initial slope of the enzymatic activity trace at a given (free) inhibitor concentration [I] (or total inhibitor concentration [I]T). No approximation for the free inhibitor concentration (e.g., assuming to be equal to the total inhibitor concentration) was made, thus having general validity for any total enzyme and inhibitor concentration and any value of the inhibition constant (even for tight-binding inhibitors). In addition, if the inhibitor acts through a purely competitive mechanism, the previous equation can be substituted by Equation (2):(2) v([I])/v([I]=0)=1/1+[I]/Kiapp=1/1+[I]/Ki(1+[S]/Km), where Ki is the intrinsic (i.e., substrate concentration-independent) inhibition constant, Km is the Michaelis–Menten constant for the enzyme–substrate interaction, and [S] is the substrate concentration. Because Km and [S] are known, the intrinsic inhibition constant can be determined. Furthermore, approximating the free compound concentration by the total compound concentration and neglecting ligand depletion, the Ki^app in Equation (2) is equivalent to the IC50, as reported in Table 3. However, it should be emphasized that the IC50 is an assay-dependent inhibition potency index (among other parameters, it depends on the enzyme and substrate concentrations, as well as on the Km); thus, the intrinsic inhibition constant is a better inhibition potency index. Uncertainties have been reported as 95% profile likelihood asymmetric confidence intervals, as especially recommended for equilibrium constants (i.e., binding association/dissociation constants and inhibition constants).

The test system of series [2] is SARS-CoV-2. As to the kind of experiment: Inhibition of SARS-CoV-2 replication in Vero cells by RT-qPCR. It counts as cell-based. The settings on record: for IC50: Severe acute respiratory syndrome coronavirus 2, Vero, 48 h, read-out: IC50 of SARS-CoV-2 replication (RT-qPCR); for logIC50 of SARS-CoV-2 replication (RT-qPCR): log of concentration in µM, Figure S4.
The next series relates to Vero cells. As to the kind of experiment: XTT cell viability assay. It counts as cell-based, Cercopithecus aethiops. The settings on record: quercetin 500–100 µM; 2d 100–10 µM; Figure S2. The procedure: Cell viability was evaluated using the XTT Cell Viability Assay kit (Biological Industries, Cromwell, CT, USA) according to the manufacturer’s protocol. Vero, A549ACE2+, CRFK, HRT-18, LLC-MK2, and HSF cells were cultured on 96-well plates. Cells were incubated with ACF for 24 h at 37 °C in an atmosphere containing 5% CO2. After incubation, the medium was discarded and 100 µL of fresh medium was added to each well. Then, 25 µL of the activated 2,3-bis-(2-methoxy-4-nitro-5-sulphenyl)-(2H)-tetrazolium-5-carboxanilide (XTT) solution was added and samples were incubated for 2 h at 37 °C. The absorbance (λ = 450 nm) was measured using a Spectra MAX 250 spectrophotometer (Molecular Devices, San Jose, CA, USA). The obtained results were normalized to the control samples, where cell viability was set to 100%.
(Formazan colour is commonly taken as a measure of viable cells.)

In series [3] the target is T1, SARS-CoV-2 M^pro. As to the kind of experiment: Reversibility test of M^pro interaction (SEC/dialysis, then activity and near-UV CD). The settings on record: M^pro 24 μM incubated with compound 200 μM, 30 min, 25 °C, then SEC or dialysis. The series is classed as biochemical.
The test system of series [4] is SARS-CoV-2. Particulars: for Inhibition of the virus-caused cytopathic effect (CPE): 2 days.
Series [5] has as its system SARS-CoV-2 main protease (M^pro or 3CL^pro). The settings on record: cited from earlier work.
Series [6] concerns SARS-CoV-2. Details: method as in PMID 32272481. The settings on record: cited from earlier work.

Structures are written as SMILES. Read-outs that look alike come from different tables or passages of the source.

Usually IC50 stands for the concentration that gives 50% inhibition. The term Ki denotes a measure of affinity in units of concentration, obtained from inhibition or displacement. High values mean lower affinity, low ones higher affinity. By melting point is commonly meant the temperature, or range, at which the solid turns liquid. In turn, `Cc1ccc([Se]c2c(O)cc(O)c3c(=O)c(O)c(-c4ccc(O)c(O)c4)oc23)cc1` [2d, 2-(3,4-Dihydroxyphenyl)-3,5,7-trihydroxy-8-(p-tolylselanyl)-4H-chromen-4-one] came in with a melting point of 203 to 206 °C. For the same molecule, the IC50 at SARS-CoV-2 M^pro [1] (equivalent to Ki^app) came to 11 µM. This molecule also registered a Ki on SARS-CoV-2 M^pro [1] (intrinsic inhibition constant) of 3.8 µM. For the same molecule, in the series with SARS-CoV-2 [2], the IC50 worked out at 8 µM and the “logIC50 of SARS-CoV-2 replication (RT-qPCR)” value is given as 0,8968. Moreover, the “improvement of the antiviral potency versus quercetin” value in the series with SARS-CoV-2 [2] (ratio of antiviral IC50 values) was 24 fold. Besides, the “cytotoxicity on Vero cells (in words)” value in the series with Vero cells was “none of the tested concentrations exhibited cytotoxicity”. Also, at SARS-CoV-2 M^pro [3], the “reversibility of the interaction with M^pro” value was “reversible interaction”. In addition, in the series with SARS-CoV-2 [4] (10 µM, Vero cells), the “Inhibition of the virus-caused cytopathic effect (CPE)” value (“Inhibition … (CPE)” below) is given as “+”. Also, in the series with SARS-CoV-2 [4] (25 µM, Vero cells), the “Inhibition … (CPE)” value is listed as “+”. Moreover, in the series on SARS-CoV-2 [4] (50 µM, Vero cells), the “Inhibition … (CPE)” value is reported as “+”. Further, in the series with SARS-CoV-2 [4] (75 µM, Vero cells), the “Inhibition … (CPE)” value was “+”. Moreover, the “Inhibition … (CPE)” value in the series on SARS-CoV-2 [4] (100 µM, Vero cells) is given as “+”. In addition, in the series on SARS-CoV-2 [4] (100 µM, in half of experiments), the “morphological changes of cells in the infection model” value is “morphological changes were observed”. Besides, the maximal non-toxic concentration with SARS-CoV-2 [4] (Vero cells, Figure S3) stood at 100 µM. In addition, in the series with SARS-CoV-2 [4] (tested at 100, 75, 50, 25 and 10 µM, judged at non-toxic concentrations), the “SARS-CoV-2-related CPE reduction (in words)” value is recorded as “inhibited the development of the CPE”.

On to `O=c1c(O)c(-c2ccc(O)c(O)c2)oc2cc(O)cc(O)c12` [Quercetin 1, quercetin], for which the IC50 in the series on SARS-CoV-2 [2] (infected Vero cells, 2 days, nonlinear regression) was determined as 192 µM. Moreover, the “logIC50 of SARS-CoV-2 replication (RT-qPCR)” value with SARS-CoV-2 [2] is 2,284. For the same molecule, the “cytotoxicity on Vero cells (in words)” value in the series on Vero cells is on record as “none of the tested concentrations exhibited cytotoxicity”. Further, the “reversibility of the interaction with M^pro” value on SARS-CoV-2 M^pro [3] (listed as 1) was “reversible interaction”; at SARS-CoV-2 M^pro [3] (listed as quercetin), “reversible”. For the same molecule, the “Inhibition … (CPE)” value is “-” in the series with SARS-CoV-2 [4] (10 µM, Vero cells); “-” with SARS-CoV-2 [4] (25 µM, Vero cells); “-” in the series with SARS-CoV-2 [4] (50 µM, Vero cells); “-” in the series on SARS-CoV-2 [4] (75 µM, Vero cells); “-” in the series on SARS-CoV-2 [4] (100 µM, Vero cells); “+” with SARS-CoV-2 [4] (200 µM, Vero cells). The “Inhibition … (CPE)” value is listed as “+” in the series on SARS-CoV-2 [4] (250 µM, Vero cells); “+” in the series with SARS-CoV-2 [4] (300 µM, Vero cells); “+” in the series on SARS-CoV-2 [4] (400 µM, Vero cells); “+” in the series with SARS-CoV-2 [4] (500 µM, Vero cells).

Consider `O=c1c2ccccc2[se]n1-c1ccccc1` [ebselen], for which the “M^pro half-maximal inhibitory concentration (IC50), in words” value in series [5] is given as “nanomolar range”. In addition, in the series on SARS-CoV-2 [6], the “Antiviral activity observed in cell models, in words” value is given as “low micromolar levels”.

With `C[C@@H]1O[C@@H](OC[C@H]2O[C@@H](Oc3c(-c4ccc(O)c(O)c4)oc4cc(O)cc(O)c4c3=O)[C@H](O)[C@@H](O)[C@@H]2O)[C@H](O)[C@H](O)[C@H]1O` [rutin], the “M^pro inhibition potency relative to quercetin, in words” value in series [5] is “slightly lower potency”.
